Assay results reported in the supplement of paper PMC11451515.

Test system: NOMO1
Test: cell viability relative to DMSO control; higher = less cytotoxic
Conditions: 48 h
How it was run: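 Viability values are per-plate percentages of DMSO wells, with background from cell-free wells. Library compounds in DMSO were pin-dosed, in an 11-point threefold series from 47 μM to 0.79 nM, onto NOMO1 or SEM (500 cells/well) or P12-Ichikawa (1000 cells/well) leukemia cells in 1536-well plates (5 μl). Those cells had been adapted for at least four passages in each medium, and CellTiter-Glo One luminescence was read after 48 h at 37°C.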

[1] = HPLM + 10% dialyzed FBS, 0.000781 µM
[2] = HPLM + 10% dialyzed FBS, 0.00234 µM
[3] = HPLM + 10% dialyzed FBS, 0.00702 µM
[4] = HPLM + 10% dialyzed FBS, 0.0211 µM
[5] = HPLM + 10% dialyzed FBS, 0.0632 µM
[6] = HPLM + 10% dialyzed FBS, 0.19 µM
[7] = HPLM + 10% dialyzed FBS, 0.569 µM
[8] = HPLM + 10% dialyzed FBS, 1.71 µM
[9] = HPLM + 10% dialyzed FBS, 5.12 µM
[10] = HPLM + 10% dialyzed FBS, 15.4 µM
[11] = HPLM + 10% dialyzed FBS, 46.1 µM
[12] = RPMI 5 mM glucose + 10% FBS, 0.000781 µM
[13] = RPMI 5 mM glucose + 10% FBS, 0.00234 µM
[14] = RPMI 5 mM glucose + 10% FBS, 0.00702 µM
[15] = RPMI 5 mM glucose + 10% FBS, 0.0211 µM
[16] = RPMI 5 mM glucose + 10% FBS, 0.0632 µM
[17] = RPMI 5 mM glucose + 10% FBS, 0.19 µM
[18] = RPMI 5 mM glucose + 10% FBS, 0.569 µM
[19] = RPMI 5 mM glucose + 10% FBS, 1.71 µM
[20] = RPMI 5 mM glucose + 10% FBS, 5.12 µM
[21] = RPMI 5 mM glucose + 10% FBS, 15.4 µM
[22] = RPMI 5 mM glucose + 10% FBS, 46.1 µM
[23] = RPMI 5 mM glucose + 10% dialyzed FBS, 0.000781 µM
[24] = RPMI 5 mM glucose + 10% dialyzed FBS, 0.00234 µM
[25] = RPMI 5 mM glucose + 10% dialyzed FBS, 0.00702 µM
[26] = RPMI 5 mM glucose + 10% dialyzed FBS, 0.0211 µM
[27] = RPMI 5 mM glucose + 10% dialyzed FBS, 0.0632 µM
[28] = RPMI 5 mM glucose + 10% dialyzed FBS, 0.19 µM
[29] = RPMI 5 mM glucose + 10% dialyzed FBS, 0.569 µM
[30] = RPMI 5 mM glucose + 10% dialyzed FBS, 1.71 µM
[31] = RPMI 5 mM glucose + 10% dialyzed FBS, 5.12 µM
[32] = RPMI 5 mM glucose + 10% dialyzed FBS, 15.4 µM
[33] = RPMI 5 mM glucose + 10% dialyzed FBS, 46.1 µM

Compound	cell viability [1] [%]	cell viability [2] [%]	cell viability [3] [%]	cell viability [4] [%]	cell viability [5] [%]	cell viability [6] [%]	cell viability [7] [%]	cell viability [8] [%]	cell viability [9] [%]	cell viability [10] [%]	cell viability [11] [%]	cell viability [12] [%]	cell viability [13] [%]	cell viability [14] [%]	cell viability [15] [%]	cell viability [16] [%]	cell viability [17] [%]	cell viability [18] [%]	cell viability [19] [%]	cell viability [20] [%]	cell viability [21] [%]	cell viability [22] [%]	cell viability [23] [%]	cell viability [24] [%]	cell viability [25] [%]	cell viability [26] [%]	cell viability [27] [%]	cell viability [28] [%]	cell viability [29] [%]	cell viability [30] [%]	cell viability [31] [%]	cell viability [32] [%]	cell viability [33] [%]
O=C(/C=C/c1cccnc1)NCCCCC1CCN(C(=O)c2ccccc2)CC1	102	59.8	33.1	17.4	13.1	7.89	6.3	7.27	9.47	10.6	6.73	105	110	47	28	12.9	9.19	8.33	8.21	8.16	8.07	7.6	110	75.6	39	30.7	16.8	9.73	7.83	8.77	7.77	8.34	6.8
CN1C(=O)C(=C/2N(C(=O)N(C3CC3)C(=O)C2=C1/NC4=CC=C(I)C=C4F)C5=CC=CC(=C5)NC(C)=O)\C	117	134	113	99.3	83.4	61.1	52.3	41.1	10.8	7.05	6.86												117	135	124	92.7	81	63.8	55.1	49.6	27.6	9.59	6.9
Cc1ccc(Nc2nccc(N(C)c3ccc4c(C)n(C)nc4c3)n2)cc1[S+](N)(=O)[O-]	107	118	102	112	121	129	126	112	132	112	50.9	93.9	101	92.1	103	99.5	101	107	114	105	100	50.3	95.8	92.1	102	85.4	104	112	105	123	110	97.2	71.1
Cc1ccnc(N[S+](=O)([O-])c2ccc(NC(=O)Nc3ccc([S+](=O)([O-])Nc4nccc(C)n4)cc3)cc2)n1	100	99.6	99.3	101	107	20.8	37.1	7.33	6.39	4.89	2.2	97.6	83.9	83.5	90.1	86.6	36	53.1	7.07	5.88	4.91	2.42	79.3	77.8	88	85.2	86.5	46.8	56	6.77	5.66	4.24	2.51
